From patent publication US8822690B2, “High transmissional yellow dye for LCD and synthetic method thereof” (LG Display Co., Ltd., priority 2012, dated 2014)
Read-outs that look alike come from different tables or passages of the source.

Key:
Assay type in all cases: physicochemical
[1] = qualitative solubility assessment of the synthesized quinophthalone series dye; conditions: organic solvent or mixture
Source text: In below Table 1, there were qualitative solubility assessment results of the synthesized quinophthalone series dye. […] This means that new design to improve solubility is successful. It was shown that QP3 improving intermolecular steric hindrance by bulk-sized alkyl residue and QP4 increasing affinity to the process solvent, PGMEA, by introducing carboxylate functional group increased its solubility successfully than QP1.

[2] = solubility to PGMEA in primary color filter application property assessment; conditions: for 1% solubility of dye to PGMEA: 1% in PGMEA
[3] = thermal resistance by Thermo Gravimetric Analyzer (TGA); conditions: high temperature zone over 300° C.
Protocol: Through Thermo Gravimetric Analyzer (TGA), Thermogravimetric Analyzer 2050 (TA instruments), thermal resistance of the synthesized dye was measured (FIG. 3). For the thermal resistance test, change of mass reduction rate (w %) was measured by passing through isothermal section at 220° C. for 30 min, raising the temperature to 30° C.˜400° C. in 10° C./min. In order to apply it as a dye material for LCD color filter, the mass reduction in isothermal zone must be less than 5%. […] In case of QP3 and QP4, it was analyzed that functional groups introduced to improve the solubility gave somewhat reciprocal effects to the thermal resistance of dye. […] It seems that the weight loss is caused by effects of solvents or impurities rather than thermal resistance of dye itself.

[4] = spectroscopic change by temperature and number of PB (Δ Eab)
Protocol: Color simulation was performed according to the condition described in FIG. 15.

[5] = UV-vis absorption spectroscopic analysis of dye; conditions: slope of absorption reduction just prior to 500 nm, absorption after 500 nm
Source text: As QP3 and QP4 increased the molar extinction coefficient further in addition to somewhat bathochromic-shift of λmax, they show very strong and sharp absorption peaks prior to 500 nm. This is very ideal absorption peak for being used as a yellow compensation dye to correct the major green dye.

[6] = process solvent PGMEA, read-out: solubility in PGMEA
[7] = solvent CH2Cl2, read-out: solubility in CH2Cl2
[8] = 180° C., first value of PB sequence
[9] = 180° C., second value of PB sequence
[10] = 180° C., third value of PB sequence
[11] = 200° C., first value of PB sequence
[12] = 200° C., second value of PB sequence
[13] = 200° C., third value of PB sequence
[14] = 230° C., first value of PB sequence
[15] = 230° C., second value of PB sequence
[16] = 230° C., third value of PB sequence

Row | solubility [1, 6] [mg/mL] | solubility [1, 7] [mg/mL] | 1% solubility of dye to PGMEA [2] | solubility to PGMEA [2] | thermal resistance in high temperature zone [3] | spectroscopic change by # of PB (Δ Eab) [4, 8] | spectroscopic change by # of PB (Δ Eab) [4, 9] | spectroscopic change by # of PB (Δ Eab) [4, 10] | spectroscopic change by # of PB (Δ Eab) [4, 11] | spectroscopic change by # of PB (Δ Eab) [4, 12] | spectroscopic change by # of PB (Δ Eab) [4, 13] | spectroscopic change by # of PB (Δ Eab) [4, 14] | spectroscopic change by # of PB (Δ Eab) [4, 15] | spectroscopic change by # of PB (Δ Eab) [4, 16] | color property (UV-vis absorption peak) [5] | SMILES
1 | > 50 | > 50 | satisfactory level | 5-10% | the best thermal resistance property | 0.36 | 1.84 | 1.98 | 0.56 | 2.74 | 2.77 | 2.94 | 9.3 | 13.4 | the most excellent color property | CC(C)(C)c1ccc2c(c1)C(=O)/C(=C1\C=Cc3cccc(N4C(=O)c5ccc(C(C)(C)C)cc5C4=O)c3N1)C2=O [QP3]
2 | > 5 | > 5 | – | – | – | – | – | – | – | – | – | – | – | – | – | O=C1c2ccccc2C(=O)C1c1ccc2cccc(N3C(=O)c4ccccc4C3=O)c2n1 [QP1]
3 | > 0.5 | > 0.5 | – | – | – | – | – | – | – | – | – | – | – | – | – | O=C1c2cccc3cccc(c23)C(=O)N1c1cccc2c1NC(=c1c(=O)c3cccc4cccc(c1=O)c43)C=C2 [QP2]
4 | > 50 | > 50 | satisfactory level | 5-7% | – | 1.11 | 1.42 | 1.59 | 1.62 | 2.04 | 2.37 | 3.51 | 6.3 | 9.36 | – | CCOC(=O)c1ccc2c(c1)C(=O)/C(=C1\C=Cc3cccc(N4C(=O)c5ccc(C(=O)OCC)cc5C4=O)c3N1)C2=O [QP4]
